Where two headings read alike, the source gives them in different places.

Some targets named below: PAK2 (Homo sapiens, UniProt Q13177); STK35 (Homo sapiens, UniProt Q8TDR2); CAMKK1 (Homo sapiens, UniProt Q8N5S9).
Common to all, as to assay: biochemical
Holding throughout (design): DiscoveRx KINOMEscan active site-directed competition binding; percent of control kinase bound to immobilised ligand

For a further assay, the target named is T1, TYRO3 (Homo sapiens, UniProt Q06418).
T1 sequence (Q06418 1-890): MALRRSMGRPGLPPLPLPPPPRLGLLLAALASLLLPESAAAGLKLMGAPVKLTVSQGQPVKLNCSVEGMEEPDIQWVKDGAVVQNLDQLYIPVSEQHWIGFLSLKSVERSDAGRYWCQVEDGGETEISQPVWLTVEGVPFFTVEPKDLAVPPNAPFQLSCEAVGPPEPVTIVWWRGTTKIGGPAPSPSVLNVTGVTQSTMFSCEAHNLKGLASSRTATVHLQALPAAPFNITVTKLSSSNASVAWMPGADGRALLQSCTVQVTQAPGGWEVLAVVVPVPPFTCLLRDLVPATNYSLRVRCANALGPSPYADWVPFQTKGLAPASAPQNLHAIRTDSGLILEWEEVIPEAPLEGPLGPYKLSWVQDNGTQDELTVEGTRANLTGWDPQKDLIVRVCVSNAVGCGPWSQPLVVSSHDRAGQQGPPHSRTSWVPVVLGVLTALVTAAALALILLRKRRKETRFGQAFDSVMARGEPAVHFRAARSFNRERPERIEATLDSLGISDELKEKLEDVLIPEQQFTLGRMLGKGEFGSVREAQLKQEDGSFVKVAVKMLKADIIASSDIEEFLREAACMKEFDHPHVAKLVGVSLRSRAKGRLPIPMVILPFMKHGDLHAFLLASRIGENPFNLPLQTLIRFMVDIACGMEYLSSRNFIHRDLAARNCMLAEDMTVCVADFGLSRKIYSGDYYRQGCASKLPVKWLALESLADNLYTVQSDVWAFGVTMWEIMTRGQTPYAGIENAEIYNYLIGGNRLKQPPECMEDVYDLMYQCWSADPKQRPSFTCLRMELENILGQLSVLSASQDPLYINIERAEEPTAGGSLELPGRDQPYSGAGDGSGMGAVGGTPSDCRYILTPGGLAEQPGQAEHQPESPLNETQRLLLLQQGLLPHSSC

A further assay has as its target T2, SIK (Homo sapiens, UniProt P57059).
T2 construct: gene SIK1

The next assay concerns the target T3, PRKD1 (Homo sapiens, UniProt Q15139).
T3 sequence (Q15139 1-912): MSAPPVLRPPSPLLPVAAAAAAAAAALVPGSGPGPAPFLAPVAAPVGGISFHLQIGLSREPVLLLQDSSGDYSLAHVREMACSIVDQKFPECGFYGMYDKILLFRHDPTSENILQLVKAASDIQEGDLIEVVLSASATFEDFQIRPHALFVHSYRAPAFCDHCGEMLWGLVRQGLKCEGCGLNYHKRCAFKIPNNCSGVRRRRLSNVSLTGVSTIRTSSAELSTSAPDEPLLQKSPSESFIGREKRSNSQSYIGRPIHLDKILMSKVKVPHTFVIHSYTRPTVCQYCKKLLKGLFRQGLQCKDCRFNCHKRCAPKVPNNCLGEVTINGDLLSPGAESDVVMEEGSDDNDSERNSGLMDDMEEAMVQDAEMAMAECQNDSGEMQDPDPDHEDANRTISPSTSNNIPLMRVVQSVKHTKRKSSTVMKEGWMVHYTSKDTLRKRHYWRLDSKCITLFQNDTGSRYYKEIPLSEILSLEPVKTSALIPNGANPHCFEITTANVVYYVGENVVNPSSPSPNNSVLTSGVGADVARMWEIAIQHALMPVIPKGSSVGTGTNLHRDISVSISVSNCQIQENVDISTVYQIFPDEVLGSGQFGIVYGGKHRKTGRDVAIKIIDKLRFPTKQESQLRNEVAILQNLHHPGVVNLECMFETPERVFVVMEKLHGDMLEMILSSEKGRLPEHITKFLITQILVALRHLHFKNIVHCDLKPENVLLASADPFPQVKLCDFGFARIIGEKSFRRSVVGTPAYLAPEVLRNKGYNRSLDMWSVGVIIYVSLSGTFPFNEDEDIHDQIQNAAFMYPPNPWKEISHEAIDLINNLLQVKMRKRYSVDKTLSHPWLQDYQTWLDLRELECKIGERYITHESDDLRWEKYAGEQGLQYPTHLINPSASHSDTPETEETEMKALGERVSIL

Setting [1] is: read-out: Rucaparib / %Ctrl @ 10000nM, binding competition, % of control.
Where [2] appears, read: read-out: Talazoparib (BMN 673) / %Ctrl @ 10000nM.
Where [3] appears, read: read-out: Niraparib (MK-4827) / %Ctrl @ 10000nM.
The mark [4] stands for this setting: read-out: Olaparib / %Ctrl @ 10000nM.

Sequence of STK35 (Q8TDR2 whole entry): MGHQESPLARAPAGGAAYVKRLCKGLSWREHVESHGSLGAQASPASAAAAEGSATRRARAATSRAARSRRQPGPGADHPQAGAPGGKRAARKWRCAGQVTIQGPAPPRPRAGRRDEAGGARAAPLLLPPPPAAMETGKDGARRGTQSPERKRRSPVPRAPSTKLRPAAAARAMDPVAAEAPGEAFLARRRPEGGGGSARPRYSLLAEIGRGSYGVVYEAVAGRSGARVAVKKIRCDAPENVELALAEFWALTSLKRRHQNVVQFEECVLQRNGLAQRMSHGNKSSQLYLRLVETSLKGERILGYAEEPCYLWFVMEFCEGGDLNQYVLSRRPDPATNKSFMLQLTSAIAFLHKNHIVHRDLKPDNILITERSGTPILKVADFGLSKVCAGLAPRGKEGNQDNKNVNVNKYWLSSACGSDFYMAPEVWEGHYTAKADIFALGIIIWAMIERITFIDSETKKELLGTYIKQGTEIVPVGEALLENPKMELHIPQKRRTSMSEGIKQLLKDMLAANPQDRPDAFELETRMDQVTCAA
Sequence of CAMKK1 (Q8N5S9 whole entry): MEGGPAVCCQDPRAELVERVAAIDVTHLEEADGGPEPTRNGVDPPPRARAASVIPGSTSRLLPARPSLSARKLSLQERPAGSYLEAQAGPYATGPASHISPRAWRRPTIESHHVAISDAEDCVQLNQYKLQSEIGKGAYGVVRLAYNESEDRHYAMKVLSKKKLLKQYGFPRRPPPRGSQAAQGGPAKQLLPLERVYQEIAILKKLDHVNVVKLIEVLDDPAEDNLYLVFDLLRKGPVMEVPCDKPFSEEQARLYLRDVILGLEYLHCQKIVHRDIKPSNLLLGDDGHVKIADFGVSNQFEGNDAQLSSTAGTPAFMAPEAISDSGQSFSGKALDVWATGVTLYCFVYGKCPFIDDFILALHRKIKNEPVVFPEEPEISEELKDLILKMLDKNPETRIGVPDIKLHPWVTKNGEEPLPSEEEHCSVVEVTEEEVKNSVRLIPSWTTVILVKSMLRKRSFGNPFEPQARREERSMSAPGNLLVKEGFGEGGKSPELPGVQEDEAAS
T2 sequence (P57059 whole entry): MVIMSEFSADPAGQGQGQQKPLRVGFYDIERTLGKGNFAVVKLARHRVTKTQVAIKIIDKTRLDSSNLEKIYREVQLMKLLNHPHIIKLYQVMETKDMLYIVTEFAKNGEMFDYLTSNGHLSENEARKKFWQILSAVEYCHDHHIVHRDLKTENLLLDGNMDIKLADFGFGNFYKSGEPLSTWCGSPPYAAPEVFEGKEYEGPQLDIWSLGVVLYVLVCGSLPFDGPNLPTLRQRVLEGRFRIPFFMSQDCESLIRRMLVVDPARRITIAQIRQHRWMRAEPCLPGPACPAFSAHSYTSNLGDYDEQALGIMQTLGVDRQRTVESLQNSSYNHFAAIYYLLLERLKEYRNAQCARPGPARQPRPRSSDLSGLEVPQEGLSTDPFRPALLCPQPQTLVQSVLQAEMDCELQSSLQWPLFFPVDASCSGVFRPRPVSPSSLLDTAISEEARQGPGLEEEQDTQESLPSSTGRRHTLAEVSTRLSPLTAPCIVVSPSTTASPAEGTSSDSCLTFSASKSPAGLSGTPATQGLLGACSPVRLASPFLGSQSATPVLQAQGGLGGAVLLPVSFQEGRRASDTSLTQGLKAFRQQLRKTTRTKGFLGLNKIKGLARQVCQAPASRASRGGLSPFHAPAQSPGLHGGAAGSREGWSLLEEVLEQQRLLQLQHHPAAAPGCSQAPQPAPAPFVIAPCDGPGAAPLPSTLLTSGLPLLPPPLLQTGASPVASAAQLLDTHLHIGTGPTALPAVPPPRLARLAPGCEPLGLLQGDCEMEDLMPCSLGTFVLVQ
Sequence of PAK2 (Q13177 whole entry): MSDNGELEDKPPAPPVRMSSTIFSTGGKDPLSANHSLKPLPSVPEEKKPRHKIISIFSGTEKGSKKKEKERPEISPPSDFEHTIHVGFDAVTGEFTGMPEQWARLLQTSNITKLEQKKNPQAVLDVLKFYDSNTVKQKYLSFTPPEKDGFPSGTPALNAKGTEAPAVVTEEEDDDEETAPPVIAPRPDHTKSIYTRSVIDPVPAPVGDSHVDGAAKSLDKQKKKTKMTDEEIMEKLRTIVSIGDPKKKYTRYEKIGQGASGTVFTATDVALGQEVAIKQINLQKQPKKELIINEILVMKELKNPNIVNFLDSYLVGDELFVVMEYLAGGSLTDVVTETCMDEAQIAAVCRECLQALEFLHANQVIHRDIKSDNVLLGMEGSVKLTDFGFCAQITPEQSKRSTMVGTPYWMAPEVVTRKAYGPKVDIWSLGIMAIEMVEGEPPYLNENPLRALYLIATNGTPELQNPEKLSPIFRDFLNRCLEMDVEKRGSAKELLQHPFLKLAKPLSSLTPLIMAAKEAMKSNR

With `CNCc1ccc(-c2[nH]c3cc(F)cc4c3c2CCNC4=O)cc1` [Rucaparib], the percent of control binding at 10 µM at TYRO3 (setting [1]) turned out to be 100%; on PAK2 (setting [1]), 31%; on STK35 (setting [1]) it was 92%; on SIK (setting [1]) it was 87%; on CAMKK1 (setting [1]), 66%; at PRKD1 (setting [1]) it was 67%.
In the case of `Cn1ncnc1[C@H]1c2n[nH]c(=O)c3cc(F)cc(c23)N[C@@H]1c1ccc(F)cc1` [Talazoparib], the percent of control binding at 10 µM turned out to be 100% on TYRO3 (setting [2]); 84% on PAK2 (setting [2]); 100% on STK35 (setting [2]); 78% at SIK (setting [2]); 97% at CAMKK1 (setting [2]); 100% at PRKD1 (setting [2]).
For `NC(=O)c1cccc2cn(-c3ccc([C@@H]4CCCNC4)cc3)nc12` [Niraparib], the percent of control binding at 10 µM on TYRO3 (setting [3]) was found to be 89%; at PAK2 (setting [3]), 45%; on STK35 (setting [3]), 92%; on SIK (setting [3]), 93%; on CAMKK1 (setting [3]), 88%; at PRKD1 (setting [3]) it was 86%.
As for `O=C(c1cc(Cc2n[nH]c(=O)c3ccccc23)ccc1F)N1CCN(C(=O)C2CC2)CC1` [Olaparib], the percent of control binding at 10 µM on TYRO3 (setting [4]) is 100%; at PAK2 (setting [4]), 92%; at STK35 (setting [4]), 100%; at SIK (setting [4]), 95%; at CAMKK1 (setting [4]), 88%; at PRKD1 (setting [4]), 89%.

Values taken from PMC7026418, “The kinase polypharmacology landscape of clinical PARP inhibitors” (Scientific Reports, 2020).
